One assay has as its system APEC strain O2:H4. Nature of the assay: Antibiogram by micro-broth dilution (MIC). It counts as cell-based, Escherichia coli. As to conditions: confirmed on sorbitol-MacConkey agar. The protocol: (§1) As non-pathogenic E. coli are among the bacteria normally present in chickens' gastrointestinal tracts, potential antibiotic resistance selection markers in challenge APEC strains were identified by conducting antibiograms of each APEC strain in the library of APEC strains using a previously described micro-broth dilution method. 90 μL of Brain Heart Infusion broth was aliquoted into each well of 96-well plates. Antibiotics (specifically, kanamycin, gentamycin, neomycin, nalidixic acid, streptomycin, and ampicillin) were added to wells in order to establish an antibiotic concentration gradient spanning across each antibiotic's minimum inhibitory concentration (MIC) as reported by NARMS. […] Following incubation, the lowest concentration of each antibiotic that prevented visible bacterial growth was recorded as the MIC for that antibiotic. MICs were confirmed for each APEC strain by plating each strain on sorbitol-MacConkey agar supplemented with antibiotics at the determined MICs and incubating plates overnight at 37° C. The challenge APEC strain was then selected by incubating samples from chicken ceca on sorbitol-MacConkey agar supplemented with antibiotics at the determined MICs and incubating these samples overnight at 37° C. […]

For assay [1], the system named is all other bacteria in the cecal samples. Nature of the assay: Chicken cecal samples on sorbitol-MacConkey agar supplemented with antibiotics. The assay is classed as cell-based. The conditions noted are these: streptomycin 64 ug/mL and gentamycin 32 ug/mL, overnight 37° C. The protocol:
as §1

A further assay relates to APEC serotype O2:H4. Nature of the assay: Lytic capacity of the six-phage treatment compared with antibiotics (OD600). It counts as cell-based, Escherichia coli. As to conditions: APEC O2:H4, antibiotic at its minimum inhibitory concentration (NARMS), 1-4 hours. As for the experimental part:
The six APEC strains were individually inoculated into LB broth and incubated at 37° C. until they reached log-phase growth. Phages were added to the log-phase culture of their APEC host at an MOI of 10, and subsequent bacterial concentrations were determined by measuring the absorbance (OD600) of the culture at 1, 2, 3, and 4 hours post-phage application. One flask containing only bacterial culture was included as a negative control. Additional flasks containing both bacterial cultures and antibiotics (specifically, gentamycin sulfate, kanamycin sulfate, nalidixic acid, or chloramphenicol) at their respective minimum inhibitory concentrations (National Antibiotic Resistance Monitoring System (NARMS) 2019, antibiotics tested by NARMS) were included as positive controls. These lytic capacity experiments were conducted in triplicate for each of the phage types and their respective host APEC strains.

In the case of `[H]/N=C(/N)N[C@H]1[C@H](O)[C@@H](O)[C@H](O[C@@H]2O[C@@H](C)[C@](O)(C=O)[C@H]2O[C@@H]2O[C@@H](CO)[C@H](O)[C@@H](O)[C@@H]2NC)[C@@H](N/C(N)=N\[H])[C@@H]1O` [streptomycin], the “antibiotic concentration at which APEC strain O2:H4 is resistant” value in the assay on APEC strain O2:H4 is 64 µg/mL. The “growth of all other bacteria in the cecal samples” value in assay [1] was “prohibit the growth”.

With gentamycin, the “OD600 readings of antibiotic-treated APEC cultures over time” value in the assay with APEC serotype O2:H4 was “increased over time”. The “antibiotic concentration at which APEC strain O2:H4 is resistant” value in the assay with APEC strain O2:H4 came out at 32 µg/mL. For the same molecule, the “growth of all other bacteria in the cecal samples” value in assay [1] is recorded as “prohibit the growth”.

For the origin of these results see patent US20250041367A1, “BACTERIOPHAGES AND USE THEREOF FOR THE TREATMENT OR PREVENTION OF INFECTION CAUSED BY E. COLI” (Purdue Research Foundation, priority 2023, published 2025).
